molecular target: T1, Aurora-A(h) (Homo sapiens, UniProt O14965); test: Aurora-A kinase assay (KinaseProfiler Service Assay Protocols, Millipore; also Kinase Hotspot, Reaction Biology Corp.); format: biochemical; conditions: compound concentration 1 μM
T1 construct: purchased Millipore (KinaseProfiler service); also Reaction Biology Corp. (Kinase Hotspot)
T1 sequence (O14965 1-403): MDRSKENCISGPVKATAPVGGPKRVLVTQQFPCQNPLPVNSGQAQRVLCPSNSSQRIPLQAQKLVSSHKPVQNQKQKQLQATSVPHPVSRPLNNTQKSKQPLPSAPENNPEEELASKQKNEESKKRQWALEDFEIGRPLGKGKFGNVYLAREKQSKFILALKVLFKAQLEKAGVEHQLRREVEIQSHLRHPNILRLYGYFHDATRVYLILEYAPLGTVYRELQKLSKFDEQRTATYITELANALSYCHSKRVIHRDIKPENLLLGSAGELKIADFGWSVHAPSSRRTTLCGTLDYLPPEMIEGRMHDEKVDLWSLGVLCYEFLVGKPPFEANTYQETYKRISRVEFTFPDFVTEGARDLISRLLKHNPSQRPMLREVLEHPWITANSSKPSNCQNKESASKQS
Protocol: This example illustrated Aurora Kinase Assays of selected Compounds from this invention (referred to Daniele Fancelli et al, J. Med. Chem., 2006, 49 (24), pp 7247-7251). The KinaseProfiler™ Service Assay Protocols (Millipore) were used to test the kinase inhibiting activity of novel compounds from this invention. To do this, the buffer composition was as: 20 mM MOPS, 1 mM EDTA, 0.01% Brij-35, 5% Glycerol, 0.1% β-mercaptoethanol, 1 mg/mL BSA. Test compounds were initially dissolved in DMSO at the desired concentration, then serially diluted to the kinase assay buffer. In a final reaction volume of 25 μL, Aurora-A(h) (5-10 mU) is incubated with 8 mM MOPS pH 7.0, 0.2 mM EDTA, 200 μM LRRASLG (Kemptide), 10 mM MgAcetate and [γ33P-ATP]. The reaction was initiated by the addition of the MgATP mix. After incubation for 40 minute at room temperature, the reaction was stopped by addition of 5 μL of a 3% phosphoric acid solution. 10 μL of the reaction was then spotted onto a P30 filtermat and washed three times for 5 minutes in 50 mM phosphoric acid and once in methanol prior to drying and scintillation counting. Wells containing substrate but no kinase and wells containing a phosphopeptide control were used to set 0% and 100% phosphorylation value, respectively.
Also Kinase Hotspot SM kinase assay was used to test the compounds for IC50 or % inhibitions (Reaction Biology Corp.). Inhibitor IC50 values were determined by titration of compound at the optimal kinase concentration (Kinase EC50).

SMILES	inhibition at 1 µM [%]
CN1CCN(c2nc(Nc3nc4ccccc4[nH]3)nc(Sc3ccc(NC(=O)C4CC4)cc3)n2)CC1 [Example 9]	> 50
Cc1cnc(Nc2nc(Sc3ccc(NC(=O)C4CC4)cc3)nc(N3CCN(C)CC3)n2)s1 [Example 10]	> 90
CN1CCN(c2nc(Nc3nncs3)nc(Sc3ccc(NC(=O)C4CC4)cc3)n2)CC1 [Example 11]	< 50
CCc1nc(Nc2cc(C)[nH]n2)nc(N2CCN(c3ccncc3)CC2)n1 [Example 13]	> 50
O=C(Nc1ccc(Sc2nc(Nc3ncc[nH]3)nc(-c3ccccc3)n2)cc1)C1CC1 [Example 16]	< 50
Cc1cnc(Nc2nc(Sc3ccc(NC(=O)C4CC4)cc3)nc(N3CCN(CCO)CC3)n2)s1 [Example 19]	> 90
Cc1cnc(Nc2nc(Sc3ccc(NC(=O)C4CC4)cc3)nc(N3CCN(c4ccncc4)CC3)n2)s1 [Example 20]	> 90
Cc1cnc(Nc2nc(Sc3ccc(NC(=O)C4CC4)cc3)nc(N3CCOCC3)n2)s1 [Example 21]	> 90
Cc1cnc(Nc2nc(NCCCN3CCOCC3)nc(Sc3ccc(NC(=O)C4CC4)cc3)n2)s1 [Example 38]	> 90
Cc1cnc(Nc2nc(NCCN(C)C)nc(Sc3ccc(NC(=O)C4CC4)cc3)n2)s1 [Example 39]	> 90
Cc1cnc(Nc2nc(Sc3ccc(NC(=O)C4CC4)cc3)nc(N(C)CCN(C)C)n2)s1 [Example 40]	> 50
Cc1cnc(Nc2nc(Sc3ccc(NC(=O)C4CC4)cc3)nc(N3CCCCC3)n2)s1 [Example 44]	> 50
Cc1cnc(Nc2nc(N3CCN(C)CC3)nc(N3CCN(C)CC3)n2)s1 [Example 47]	< 50
Cc1cnc(Nc2nc(Sc3cccc(N)c3)nc(N3CCN(C)CC3)n2)s1 [Example 49]	> 50
CN1CCN(c2nc(Nc3ncc(Cl)s3)nc(Sc3ccc(NC(=O)C4CC4)cc3)n2)CC1 [Example 50]	> 90
CC(C)c1cnc(Nc2nc(Sc3ccc(NC(=O)C4CC4)cc3)nc(N3CCN(C)CC3)n2)s1 [Example 52]	> 90

SMILES	inhibition at 1 µM [%]
CN1CCN(c2nc(Nc3nccs3)nc(Sc3ccc(NC(=O)C4CC4)cc3)n2)CC1 [Example 60]	< 50
Cc1nc(Nc2nc(Sc3ccc(NC(=O)C4CC4)cc3)nc(N3CCN(C)CC3)n2)sc1C [Example 61]	< 50
Cc1csc(Nc2nc(Sc3ccc(NC(=O)C4CC4)cc3)nc(N3CCN(C)CC3)n2)n1 [Example 64]	< 50
Cc1cn(-c2nc(Sc3ccc(NC(=O)C(C)C)cc3)nc(N3CCN(C)CC3)n2)c(=N)s1 [Example 66]	< 50
CC(=O)Nc1ccc(Sc2nc(N3CCN(C)CC3)nc(-n3cc(C)sc3=N)n2)cc1 [Example 67]	< 50
CC(=O)Nc1ccc(Sc2nc(CC(C)C)nc(-n3cc(C)sc3=N)n2)cc1 [Example 69]	< 50
Cc1cn(-c2nc(Sc3ccc(NC(=O)C4CC4)cc3)nc(N3CCN(C)CC3)n2)c(=N)s1 [Example 70]	< 50
Cc1cnc(Nc2nc(Sc3ccc(NC(=O)C(C)C)cc3)nc(N3CCN(C)CC3)n2)s1 [Example 71]	> 90
CC(=O)Nc1ccc(Sc2nc(CC(C)C)nc(Nc3ncc(C)s3)n2)cc1 [Example 72]	< 50
CC(=O)Nc1ccc(Sc2nc(Nc3ncc(C)s3)nc(N3CCN(C)CC3)n2)cc1 [Example 73]	> 90
CCc1nc(Nc2ncc(C)s2)nc(N2CCN(C)CC2)n1 [Example 75]	< 50
Cc1cc(Nc2nc(Sc3ccc(NC(=O)C4CC4)cc3)nc(N3CCN(C)CC3)n2)on1 [Example 76]	> 50
Cc1nnc(Nc2nc(Sc3ccc(NC(=O)C4CC4)cc3)nc(N3CCN(C)CC3)n2)s1 [Example 77]	< 50
Cc1cc(Nc2nc(Sc3ccc(NC(=O)C4CC4)cc3)nc(N3CCN(C)CC3)n2)sn1 [Example 78]	< 50
CCc1nc(Nc2cc(C)[nH]n2)nc(N2CCN(C)CC2)n1 [Example 103]	< 50

Other lines, results leading:

inhibition at 1 µM [%]	SMILES
> 90	Cc1cc(Nc2nc(Sc3ccc(NC(=O)C4CC4)cc3)nc(N3CCN(C)CC3)n2)n[nH]1 [Example 2]
> 90	CCc1nc(Nc2cc(C)[nH]n2)nc(Sc2ccc(NC(=O)C3CC3)cc2)n1 [Example 4]
> 90	Cc1cc(Nc2nc(Sc3ccc(NC(=O)C4CC4)cc3)nc(C3CC3)n2)n[nH]1 [Example 6]
< 50	CN1CCN(c2nc(Nc3nc[nH]n3)nc(Sc3ccc(NC(=O)C4CC4)cc3)n2)CC1 [Example 8]
> 90	Cc1cc(Nc2nc(Sc3ccc(NC(=O)C4CC4)cc3)nc(N3CCN(c4ccncc4)CC3)n2)n[nH]1 [Example 12]
> 90	CCOC(=O)c1cc(Nc2nc(Sc3ccc(NC(=O)C4CC4)cc3)nc(N3CCN(C)CC3)n2)n[nH]1 [Example 30]
< 50	CCCCNc1nc(Nc2ncc(C)s2)nc(Sc2ccc(NC(=O)C3CC3)cc2)n1 [Example 41]
> 50	CCN(CC)c1nc(Nc2ncc(C)s2)nc(Sc2ccc(NC(=O)C3CC3)cc2)n1 [Example 42]
> 50	Cc1cc(Nc2nc(Sc3ccc(N)cc3)nc(C3CC3)n2)n[nH]1 [Example 45]
> 50	Cc1cnc(Nc2nc(Sc3ccc(N)cc3)nc(N3CCN(C)CC3)n2)s1 [Example 48]
> 90	CN1CCN(c2nc(Nc3cc(C4CC4)[nH]n3)nc(Sc3ccc(NC(=O)C4CC4)cc3)n2)CC1 [Example 53]
> 50	CN1CCN(c2nc(Nc3cc(C(C)(C)C)[nH]n3)nc(Sc3ccc(NC(=O)C4CC4)cc3)n2)CC1 [Example 54]
> 90	CN1CCN(c2nc(Nc3cc(C4CCC4)[nH]n3)nc(Sc3ccc(NC(=O)C4CC4)cc3)n2)CC1 [Example 55]
> 50	CC(C)c1cc(Nc2nc(Sc3ccc(NC(=O)C4CC4)cc3)nc(N3CCN(C)CC3)n2)n[nH]1 [Example 56]
< 50	CCCc1cc(Nc2nc(Sc3ccc(NC(=O)C4CC4)cc3)nc(N3CCN(C)CC3)n2)n[nH]1 [Example 57]
< 50	CCc1nc(Nc2ncc(C)s2)nc(Sc2ccc(NC(=O)C3CC3)cc2)n1 [Example 58]
> 50	Cc1cnc(Nc2nc(Sc3ccc(NC(=O)C4CC4)cc3)nc(C3CC3)n2)s1 [Example 59]

inhibition at 1 µM [%]	SMILES
> 90	CC(C)C(=O)Nc1ccc(Sc2nc(Nc3cc(C4CC4)[nH]n3)nc(C3CC3)n2)cc1 [Example 79]
> 90	CCC(=O)Nc1ccc(Sc2nc(Nc3cc(C4CC4)[nH]n3)nc(C3CC3)n2)cc1 [Example 81]
> 90	CCC(=O)Nc1ccc(Sc2nc(Nc3cc(C)[nH]n3)nc(C3CC3)n2)cc1 [Example 82]
> 90	CCC(=O)Nc1ccc(Sc2nc(CC)nc(Nc3cc(C)[nH]n3)n2)cc1 [Example 83]
> 90	CCC(=O)Nc1ccc(Sc2nc(CC)nc(Nc3cc(C4CC4)[nH]n3)n2)cc1 [Example 84]
> 90	CCC(=O)Nc1ccc(Sc2nc(C)nc(Nc3cc(C)[nH]n3)n2)cc1 [Example 86]
> 90	CCC(=O)Nc1ccc(Sc2nc(C)nc(Nc3cc(C4CC4)[nH]n3)n2)cc1 [Example 87]
> 90	Cc1cc(Nc2nc(Sc3ccc(NC(=O)C4CC4)cc3)nc(N3CCOCC3)n2)n[nH]1 [Example 88]
> 90	Cc1cc(Nc2nc(Sc3ccc(NC(=O)C4CC4)cc3)nc(N3CCCC3)n2)n[nH]1 [Example 89]
> 90	Cc1cc(Nc2nc(NCCCN3CCOCC3)nc(Sc3ccc(NC(=O)C4CC4)cc3)n2)n[nH]1 [Example 90]
> 90	Cc1cc(Nc2nc(NCCN(C)C)nc(Sc3ccc(NC(=O)C4CC4)cc3)n2)n[nH]1 [Example 91]
> 50	Cc1cc(Nc2nc(Sc3ccc(NC(=O)C4CC4)cc3)nc(N(C)CCN(C)C)n2)n[nH]1 [Example 92]
> 90	CCCCNc1nc(Nc2cc(C)[nH]n2)nc(Sc2ccc(NC(=O)C3CC3)cc2)n1 [Example 93]
> 90	CCN(CC)c1nc(Nc2cc(C)[nH]n2)nc(Sc2ccc(NC(=O)C3CC3)cc2)n1 [Example 94]
> 90	Cc1cc(Nc2nc(Sc3ccc(NC(=O)C4CC4)cc3)nc(N3CCN(CCO)CC3)n2)n[nH]1 [Example 96]
> 90	Cc1cc(Nc2nc(N)nc(Sc3ccc(NC(=O)C4CC4)cc3)n2)n[nH]1 [Example 97]
> 50	Cc1cc(Nc2nc(Sc3ccc(C(=O)NC4CC4)cc3)nc(N3CCN(C)CC3)n2)n[nH]1 [Example 106]

From patent publication US20120172361A1, “TRIAZINE DERIVATIVES AND THEIR THERAPEUTICAL APPLICATIONS” (CALIFORNIA CAPITAL EQUITY, LLC, priority 2009, published 2012)
